# From US20260335310A1, “GEPOTIDACIN FOR USE IN THE TREATMENT OF BACTERIAL PROSTATITIS” (GLAXOSMITHKLINE INTELLECTUAL PROPERTY DEVELOPMENT LIMITED, priority 2022, published 2026)
# Where two headings read alike, the source gives them in different places.
# How the values were obtained:
# [1] = Total plasma pharmacokinetics of gepotidacin in healthy and E. coli infected rats; assay type: in vivo, rat; details: IV bolus 20 mg/kg; for Vd / half-life / clearance: rat, plasma, iv, 20 mg/kg; for clearance: read-out: CLt,plasma
# Text: (§1) An Escherichia coli prostatitis model in rats was obtained as follows. Four days before microdialysis, rats (n=11) were infected with Escherichia coli ATCC 13441 in the prostatic urethra, to induce E. coli prostatitis, at an inoculum of 10^7 CFU/rat. Healthy rats (n=9) were not infected with E. coli as control.
# (§2) The day before the experiment, two CMA/20 probes (membrane length 10 mm, Harvard Apparatus, Courtaboeuf France) were inserted into right jugular vein and the right hind leg muscle of healthy and infected rats under anesthesia and analgesic treatment. In parallel, catheters were inserted into the femoral vein and artery to administer gepotidacin intravenously (IV) and to collect blood samples for determination of total plasma gepotidacin concentrations, respectively. The rats were allowed to recover consciousness, and food was withdrawn for 12 hours.
# (§3) On the day of the experiment, healthy control and infected rats were re-anesthetized and a CMA/20 Elite probe (membrane length 4 mm) was inserted into the prostate. All probes were connected to infusion pumps and perfused with Ringer containing a calibrator (((R)-1-((4-(((2,3-dihydro-[1,4]oxathiino[2,3-c]pyridin-7-yl)methyl)amino)piperidin-1-yl)methyl)-1,2-dihydro-3H,8H-2a,5,8a-triazaacenaphthylene-3,8-dione; […]) at a flow rate of 0.5 μL/min with Ringer. After an equilibration period, gepotidacin was administered by IV bolus at a dose of 20 mg/kg. Blood, muscle, and prostate dialysates were collected every 10 minutes for 90 minutes, and then every 30 minutes […]. Seven blood samples were also collected for analysis of gepotidacin pharmacokinetics in total plasma. Gepotidacin concentrations were measured in dialysates and in plasma by LC-MS/MS.
# (§4) Pharmacokinetic (PK) parameters were determined in each individual rat by a noncompartmental approach according to standard procedures and with the software Phoenix WinNonLin 7. (Certara, Princeton, NJ) Total unbound body clearance (CLu) was calculated as CLu=dose/AUCu,blood, where AUCu,blood is the total area under the unbound blood concentration-versus-time curve from zero to infinity, equal to the area under the curve from zero to the last measured concentration AUC0-last,u,blood added to the area under the curve from the last measured concentration to infinity AUClast-infinity,u,blood. AUC0-last,u,blood was calculated by linear-logarithmic trapezoidal method. AUClast-infinity,u,blood the area remaining under the curve after the last measured concentration, C(last)u,blood was determined from C(last)u,blood/keblood. The elimination rate constant (keblood) and its corresponding half-life (t1/2,blood) were estimated by least squares fit of the data points (log concentration-time). The linear-logarithmic trapezoidal method was used to compute the area under the unbound blood concentration-versus-time moment curve AUMC0-last,u,blood from zero to the last measured concentration. AUMClast-infinity,u,blood the area remaining under the curve after the last measured concentration was determined from: tlast×C(last)u,blood/keblood+C(last)u,blood/keblood^2. The mean residence time from zero to infinity, MRT0-infinity was determined from AUMC0-infinity,u,blood/AUC0-infinity,u,blood. The volume of distribution (VSSu) was obtained from MRT0-infinity×CLu. The AUCu and t1/2,u in tissues were also estimated by the same procedure.
# [2] = In vivo microdialysis of unbound gepotidacin in blood, muscle and prostate of healthy and E. coli infected rats; design: species or system rat; details: for Kp uu: rat, iv, 20 mg/kg
# Text: The example herein describes microdialysis experiments in E. coli infected rats to measure tissue distribution of unbound gepotidacin. In vivo microdialysis experiments simultaneously determined unbound gepotidacin concentrations in rat prostate, muscle, and blood. It is important to understand the tissue distribution of unbound gepotidacin, especially in the target prostate tissue, since gepotidacin must diffuse through capillary membranes to reach the prostate. An assumption that the plasma concentration of gepotidacin represents a suitable surrogate of prostate concentrations, without prostate tissue confirmation, may lead to erroneous conclusions, especially since the pathogen is localized in the prostate.
# as §1, §2, §3
# as §4, with “The volume of distribution (VSSu) was obtained from MRT0-infinity×CLu. The AUCu and t1/2,u in tissues were also estimated by the same procedure.” left out
# [3] = infected rats (n = 11; E. coli ATCC 13441 prostatitis)
# [4] = healthy rats (n = 9), blood, unbound, IV bolus 20 mg/kg
# [5] = healthy rats (n = 9), muscle, unbound, IV bolus 20 mg/kg
# [6] = healthy rats (n = 9), prostate, unbound, IV bolus 20 mg/kg
# [7] = infected rats (n = 11; E. coli ATCC 13441 prostatitis), blood, unbound, IV bolus 20 mg/kg
# [8] = infected rats (n = 11; E. coli ATCC 13441 prostatitis), muscle, unbound, IV bolus 20 mg/kg
# [9] = infected rats (n = 11; E. coli ATCC 13441 prostatitis), prostate, unbound, IV bolus 20 mg/kg
# [10] = prostatitis (infected) rats, FIG. 1C-1D
smiles,measurement,setting,value
"O=c1ccc2ncc(=O)n3c2n1C[C@H]3CN1CCC(NCc2cc3c(cn2)OCCC3)CC1 [gepotidacin, (2R)-2-({4-[(3,4-dihydro-2/pyrano[2,3-c]pyridin-6-ylmethyl)amino]-1-piperidinyl}methyl)-1,2-dihydro-3H,8/2a,5,8a-triazaacenaphthylene-3,8-dione]",AUC,[1]; healthy rats (n = 9),6750 ± 950 ng·h/mL
same,AUC,[1]; [3],7870 ± 2380 ng·h/mL
same,Vd,[1]; healthy rats (n = 9),4.26 ± 0.851 L/kg
same,half-life,[1]; healthy rats (n = 9),1.2 ± 0.19 h
same,clearance,[1]; healthy rats (n = 9),50.3 ± 7.1 mL/min/kg
same,Vd,[1]; [3],4.02 ± 0.997 L/kg
same,half-life,[1]; [3],1.27 ± 0.165 h
same,clearance,[1]; [3],45.6 ± 12.8 mL/min/kg
same,"Half-life and Cmax,u in blood, muscle, and prostate, comparison of tissues",[2]; healthy control rats,similar
same,Unbound concentration time profile in blood,"[2]; healthy control rats, FIG. 1A, 1B",biphasic
same,Concentration profiles in prostate and muscle relative to blood,"[2]; healthy control rats, with the exception of the first time point, FIG. 1A",almost superimposed with blood concentrations
same,CLu (total unbound body clearance),[2]; [4],44.4 ± 5.1 mL/min/kg
same,"Cmax,u",[2]; [4],10300 ± 2600 ng/mL
same,VSSu (volume of distribution),[2]; [4],3.967 ± 0.557 L/kg
same,"t1/2,u",[2]; [4],1.3 ± 0.317 h
same,"Cmax,u",[2]; [5],8600 ± 2500 ng/mL
same,"t1/2,u",[2]; [5],1.3 ± 0.15 h
same,"Cmax,u",[2]; [6],8200 ± 1900 ng/mL
same,"t1/2,u",[2]; [6],1.13 ± 0.183 h
same,"Cmax in prostate, infected compared to healthy rats",[2]; infected rats,slightly lower compared to healthy rats
same,"Half-lives, comparison of blood, muscle, and prostate",[2]; infected rats,"the same between blood, muscle, and prostate"
same,CLu (total unbound body clearance),[2]; [7],35.8 ± 5.5 mL/min/kg
same,"Cmax,u",[2]; [7],12300 ± 1900 ng/mL
same,VSSu (volume of distribution),[2]; [7],3.344 ± 0.59 L/kg
same,"t1/2,u",[2]; [7],1.43 ± 0.383 h
same,"Cmax,u",[2]; [8],9900 ± 3800 ng/mL
same,"t1/2,u",[2]; [8],1.28 ± 0.367 h
same,"Cmax,u",[2]; [9],6600 ± 2700 ng/mL
same,"t1/2,u",[2]; [9],1.38 ± 0.15 h
same,"Muscle/blood and prostate/blood AUCu ratios, infected compared to healthy rats","[2]; infected vs healthy rats, p>0.05, Wilcoxon test, R software",not significantly different
same,Unbound concentration time profile in blood,[2]; [10],biphasic
same,Unbound concentrations in prostate relative to blood,[2]; [10],slightly lower than in blood
same,Kp uu,"[2]; muscle, healthy rats (n = 9), unbound, IV bolus 20 mg/kg, read-out: AUCu muscle/blood",1.06 ± 0.17
same,Kp uu,"[2]; muscle, infected rats (n = 11; E. coli ATCC 13441 prostatitis), unbound, IV bolus 20 mg/kg, read-out: AUCu muscle/blood",1.03 ± 0.13
same,Kp uu,"[2]; muscle/blood and prostate/blood, healthy control rats, muscle/blood and prostate/blood, read-out: AUCu ratios",~1
same,Kp uu,"[2]; prostate, healthy rats (n = 9), unbound, IV bolus 20 mg/kg, read-out: AUCu prostate/blood",0.89 ± 0.17
same,Kp uu,"[2]; prostate, infected rats (n = 11; E. coli ATCC 13441 prostatitis), unbound, IV bolus 20 mg/kg, read-out: AUCu prostate/blood",0.78 ± 0.21
